Where two headings read alike, the source gives them in different places.
Key:
B-16 malignant melanoma = B-16 malignant melanoma in C57BL/6 mice, tumor growth after intraperitoneal injection; assay type: in vivo
Description: The compounds were tested by intraperitoneal injections of suspensions of the compounds in an aqueous solution of polyvinyl pyrrolidone.
Mice with malignant melanomas were injected with 20 mg or 40 mg diflubenzuron in suspension or with the suspension medium (blank).
Finally compound 2) was given in doses of 20 mg each on days 0, 1 and 2.
Animals with growing tumors were treated with 100 mg of diflubenzuron alone (suspended in an aqueous solution of polyvinylpyrrolidone) or in combination with a metabolic inhibitor or a metabolic inducer according to the schedule given in Table XI.

melanoma B-16 cells = assay: Malignant melanoma B-16 cells in vitro, cell count by Coulter Counter; assay type: cell-based; settings: Mus musculus; for activity at 200 µg/mL / activity at 300 µg/mL / activity at 50 µg/mL: B16, 48 h; for activity at 200 µg/mL: 200 ug/ml; for activity at 500 µg/mL / activity at 5000 µg/mL: B16, 20 hours incubation, cells counted at 48 hours; for activity at 500 µg/mL: read-out: Percentage of controll cell growth when tested in an amount of 5 x 10^2 µg/ml; for activity at 5000 µg/mL: read-out: Percentage of controll cell growth when tested in an amount of 5 x 10^3 µg/ml; for activity at 300 µg/mL: 300 ug/ml; for activity at 50 µg/mL: 50 ug/ml
Description: Cells of malignant melanomas B-16 grow as a monolayer. The doubling time of this type of cells in a cell--culture is 12 to 16 hours. For this experiment 6 multi-well tissue culture plates having a flat bottom with a surface area of 6 cm^2 appeared to be suitable and have been used.
On day 0 a quantity of melanoma B-16 cells were brought on the cell-culture plates.
The test compounds were sonicated and then incubated without cells for 3 hours at 37°C.
Then the compound to be tested was administered to the plates with melanoma B-16 cells in the desired quantity (each test was done in triplicate). Thereafter the plates were incubated in a C02-incubator for 20 hours at 37°C. Then the incubation was stopped by removing the culture medium containing the test compound, the cells were washed twice, and fresh culture medium was added.
48 Hours after starting the incubation step the number of cells on each plate was measured by means of a microcell Coulter Counter. The results so obtained have been expressed as "percentage of controll cell growth".
In the above experiment the compounds to be tested have been used in the form of a suspension. Since it is not quite clear how much of the active compounds is dissolved, the above results cannot be compared very well.
Therefore a number of compounds has been dissolved in ethanol.

[1] = dissolved in ethanol, read-out: Percentage of controll cell growth (solution)
[2] = suspension, read-out: Percentage of controll cell growth (suspension)
[3] = 20 mg each on days 0, 1, 2, 3 and 4
[4] = 100 mg total, 20 mg each on day 0, 1, 2, 3 and 4
[5] = 10 mg each on days 0, 1, 2, 3 and 4

Compound: Cc1ccc2cc3c(ccc4ccccc43)c3c2c1CC3 [3-methylcholanthrene, 3-Methylcholanthrene, reference compound]
- % change in tumor mass day 1 (B-16 malignant melanoma; mouse, in vivo): 122 (6) %
- % change in tumor mass day 2 (B-16 malignant melanoma; mouse, in vivo): 223 (6) %
- % change in tumor mass day 3 (B-16 malignant melanoma; mouse, in vivo): 364 (6) %
- % change in tumor mass day 4 (B-16 malignant melanoma; mouse, in vivo): 417 (6) %
- % change in tumor mass day 5 (B-16 malignant melanoma; mouse, in vivo): 363 (6) %

Compound: O=C(NC(=O)c1c(F)cccc1F)Nc1cc(Cl)c(Oc2ncc(C(F)(F)F)cc2Cl)c(Cl)c1 [Compound 2, 1-(2,6-difluorobenzoyl)-3-[3,5-dichloro-4-(3-chloro-5--trifluoromethyl-2-pyridyloxy)phenyl]urea]
- Mean tumor Mass Day 1 (B-16 malignant melanoma; 20 mg each on days 0, 1 and 2): 191
- activity at 200 µg/mL (melanoma B-16 cells; [1]): 72%
- activity at 200 µg/mL (melanoma B-16 cells; [2]): 114%

Compound: O=C(NC(=O)c1c(F)cccc1F)Nc1ccc(Oc2ccc(Cl)cc2)c(Cl)c1 [Compound 3, 1-(2,6-difluorobenzoyl)-3-[3-chloro-4-(4-chlorophenoxy)phenyl]urea]
- Mean tumor Mass Day 1 (B-16 malignant melanoma; [3]): 127
- activity at 500 µg/mL (melanoma B-16 cells; suspension): 33%
- activity at 5000 µg/mL (melanoma B-16 cells; suspension): 8%

Compound: O=C(NC(=O)c1ccccc1Cl)Nc1ccc(Cl)cc1 [Compound 5, 1-(2-chlorobenzoyl)-3-(4-chlorophenyl)urea]
- Mean tumor Mass Day 1 (B-16 malignant melanoma; [3]): 198
- activity at 500 µg/mL (melanoma B-16 cells; suspension): 98%
- activity at 5000 µg/mL (melanoma B-16 cells; suspension): 86%

Compound: O=C(NC(=O)c1ccccc1Cl)Nc1ccc(OC(F)(F)F)cc1 [Compound 6, l-(2-chlorobenzoyl)-3-(4-trifluoromethoxyphenyl)urea]
- Mean tumor Mass Day 1 (B-16 malignant melanoma; [3]): 229
- activity at 300 µg/mL (melanoma B-16 cells; [1]): 95%
- activity at 300 µg/mL (melanoma B-16 cells; [2]): 88%

Compound: O=C(NC(=O)c1c(F)cccc1F)Nc1ccc(Cl)cc1O [Compound 7]
- % change in tumor mass day 1 (B-16 malignant melanoma; [4]): -23.4 (12) %
- % change in tumor mass day 2 (B-16 malignant melanoma; [4]): -17.4 (12) %
- % change in tumor mass day 3 (B-16 malignant melanoma; [4]): 25.1 (12) %
- % change in tumor mass day 4 (B-16 malignant melanoma; [4]): 74.7 (10) %
- % change in tumor mass day 5 (B-16 malignant melanoma; [4]): 127 (10) %
- % change in tumor mass on day 11 (B-16 malignant melanoma; [4]): 699 (10) %
- antitumor effect compared with parent compound diflubenzuron (in words) (B-16 malignant melanoma; [4]): more effective
- activity at 50 µg/mL (melanoma B-16 cells; [1]): 39%
- activity at 50 µg/mL (melanoma B-16 cells; [2]): 103%
- activity at 300 µg/mL (melanoma B-16 cells; [1]): 0%
- activity at 300 µg/mL (melanoma B-16 cells; [2]): 103%

Compound: O=C(NC(=O)c1c(F)cccc1F)Nc1ccc(Cl)c(O)c1 [Compound 8, 1-(2,6-difluorobenzoyl)-3-(4-chloro-3-hydroxyphenyl)urea]
- % change in tumor mass day 1 (B-16 malignant melanoma; [4]): 39.5 (12) %
- % change in tumor mass day 2 (B-16 malignant melanoma; [4]): 52.4 (12) %
- % change in tumor mass day 3 (B-16 malignant melanoma; [4]): 91.2 (12) %
- % change in tumor mass day 4 (B-16 malignant melanoma; [4]): 149 (12) %
- % change in tumor mass day 5 (B-16 malignant melanoma; [4]): 223 (12) %
- % change in tumor mass on day 11 (B-16 malignant melanoma; [4]): 930 (12) %
- antitumor effect compared with parent compound diflubenzuron (in words) (B-16 malignant melanoma; [4]): not active at all
- activity at 300 µg/mL (melanoma B-16 cells; [1]): 0%
- activity at 300 µg/mL (melanoma B-16 cells; [2]): 63%
- activity at 500 µg/mL (melanoma B-16 cells; suspension): 51%
- activity at 5000 µg/mL (melanoma B-16 cells; suspension): 53%

Compound: O=C(NC(=O)c1ccccc1Cl)Nc1ccc(OC(F)(F)F)cc1O [Compound 9, 1-(2-chlorobenzoyl)-3-(2-hydroxy-4-trifluoromethoxyphenyl)urea]
- activity at 500 µg/mL (melanoma B-16 cells; suspension): 100%
- activity at 5000 µg/mL (melanoma B-16 cells; suspension): 70%

Compound: N#Cc1ccc(NC(=O)NC(=O)c2c(F)cccc2F)cc1 [Compound 10, l-(2,6-difluorobenzoyl)-3-(4-cyanophenyl)urea]
- Mean tumor Mass Day 1 (B-16 malignant melanoma; [3]): 183

Compound: O=C(NC(=O)c1c(F)cccc1F)Nc1ccc(OC(F)(F)C(F)C(F)(F)F)cc1 (stereo not shown) [Compound 11]
- Mean tumor Mass Day 1 (B-16 malignant melanoma; [3]): 193

Compound: O=C(NC(=O)c1c(F)cccc1F)Nc1ccc(O)cc1 [Compound 12, 1-(2,6-difluorobenzoyl)-3-(4 :aydroxyphenyl)urea]
- Mean tumor Mass Day 1 (B-16 malignant melanoma; [3]): 148

Compound: O=C(NC(=O)c1c(F)cccc1F)Nc1ccc(C2CCCCC2)cc1 [Compound 13, l-(2,6-difluorobenzoyl)-3-(4-cyclohexylphenyl)urea]
- Mean tumor Mass Day 1 (B-16 malignant melanoma; [5]): 205

Compound: O=C(NC(=O)c1c(F)cccc1F)Nc1ccc(Cl)c(Cl)c1 [Compound 15, 1-(2,6-difluorobenzoyl)-3-(3,4-dichlorophenyl)urea]
- Mean tumor Mass Day 1 (B-16 malignant melanoma; [3]): 151

Compound: O=C(NC(=O)c1c(Cl)cccc1Cl)Nc1ccc(Cl)cc1 [Compound 17, 1-(2,6-dichlorobenzoyl)-3-(4-chlorophenyl)urea]
- Mean tumor Mass Day 1 (B-16 malignant melanoma; [5]): 347

Compound: O=C(NC(=O)c1c(Cl)cccc1Cl)Nc1ccc(C(F)(F)F)cc1 [Compound 18, 1-(2,6-dichlorobenzoyl)-3-(4-trifluoromethylphenyl)urea]
- Mean tumor Mass Day 1 (B-16 malignant melanoma; [5]): 314

Compound: O=C(NC(=O)c1ccccc1)Nc1ccc(Cl)cc1 [Compound 19, 1-benzoyl-3-(4-chlorophenyl)urea]
- Mean tumor Mass Day 1 (B-16 malignant melanoma; [3]): 159

Compound: O=C(NC(=O)c1c(F)cccc1F)Nc1ccc(C(F)(F)F)cc1O [Compound 20, 1-(2,6-difluorobenzoyl)-3-(2-hydroxy-4-trifluoromethylphenyl)urea]
- activity at 500 µg/mL (melanoma B-16 cells; suspension): 91%
- activity at 5000 µg/mL (melanoma B-16 cells; suspension): 81%

Compound: O=C(NC(=O)c1ccccc1Cl)Nc1ccc(C(F)(F)F)cc1O [Compound 21, 1-(2-chlorobenzoyl)-3-(2-hydroxy-4-trifluoromethylphenyl)urea]
- activity at 300 µg/mL (melanoma B-16 cells; [1]): 43%
- activity at 300 µg/mL (melanoma B-16 cells; [2]): 50%
- activity at 500 µg/mL (melanoma B-16 cells; suspension): 101%
- activity at 5000 µg/mL (melanoma B-16 cells; suspension): 71%
